`CC(=O)NC1CC(N)(C(=O)O)C2C(C(=O)O)C12` (stereo not given) returned a melting point greater than 275 °C.

`Cc1c(Cl)cccc1S(=O)(=O)Nc1ccc2nc(C)n(CCO)c2c1` had a melting point of 213 to 214 °C.

As for `O=C(Nc1ccc2[nH]c(CO)cc2c1)c1cc2ccccc2o1`, the melting point was in the range of 164 to 165 °C.

As for `O=C(O)COc1cc(F)ccc1C(=S)NCc1ccc(Br)cc1F`, the melting point is 154 to 157 °C.

For the compound `Clc1ccc(C2NCCc3c2[nH]c2ccccc32)cc1` (stereo not given), the melting point was 161 °C.

The compound `CN(C)C=Nc1c(Cl)cc(N=Cc2cccc(C(F)(F)F)c2)cc1Cl` registered a melting point of 62 to 64 °C.

`Cc1c(C)n(CC=CCl)c2c(OCc3ccc(F)cc3)nncc12` came in with a melting point of 110 to 115 °C.

The compound `CC(C)(C)c1cc(CCC(=O)NNC(=O)C=Cc2ccc(Cl)cc2)cc(C(C)(C)C)c1O` yielded a melting point of 276 to 277 °C.

In the case of `OC1CSC(Oc2cccc(-c3cccs3)c2)C(O)C1O` (stereo not given), the melting point was in the range of 165 to 166 °C.

For the compound `COc1cc(C(=O)N(C(C)C)C2CCCCC2)ccc1Cn1c(-c2ccccc2Cl)nc2ncccc21`, the melting point was 121 to 123 °C.

The compound `CCOc1cc(CC)ccc1C1CCN(CCCCNC(=O)c2ccc(-c3ccc(S(C)(=O)=O)cc3)cc2)CC1` had a melting point of 179 to 180 °C.

`CCC(=O)NN=C(Nc1ccc([N+](=O)[O-])cc1)c1ccc(OC)cc1` registered a melting point of 200 °C.

Consider `CS(=O)(=O)NC1Cc2ccc(C3=NNC(=O)CC3)cc2C1` (stereo not given), for which the melting point fell in the range of 218 to 220 °C.

With `CCCc1nn(C)c2c(=O)[nH]c(Cc3ccc(NC(=O)/C=C/OCC)cc3)nc12`, the melting point was 241 to 243 °C.

Turning to `CC(O)=C(C#N)C(=O)Oc1ccc(Cl)cc1`, the melting point is 97 to 100 °C.

The compound `COCC1OC(n2c(Cl)nc3cc(Cl)c(Cl)cc32)C(O)C1O` (stereo not given) registered a melting point of 104 to 105 °C.

Consider `Nc1sc(-c2cccnc2)c(CN(C2CCCCC2)C2CCCCC2)c1C(=O)c1ccc(Cl)cc1`, for which the melting point fell in the range of 168 to 170 °C.

Compound `O=C(O)COc1cccc2c1CCc1sc(SCC=Cc3ccccc3)nc1-2` returned a melting point of 171 to 172 °C.

The compound `CCOC(=O)N1CCC(=C2c3ccccc3CCn3c(C(=O)O)cnc32)CC1` displayed a melting point of 182 °C.

For the compound `CC(C)(C)OC(=O)N1CCn2c(c(C(N)=O)c(Cl)c2-c2ccccc2)C1`, the melting point is 183 to 185 °C.

`O=c1[nH]c(-c2ccc(CCCCCl)cc2)cs1` returned a melting point of 111 to 117 °C.

For `CC(C)=CCCC(C)CCOCC(=O)c1cc(C(C)C)c(O)c(C(C)C)c1` (stereo not given), the melting point was in the range of 37 to 39 °C.

`CCCOC(=O)C(N)C=CCP(=O)(O)O` (stereo not given) showed a melting point of 161 to 162 °C.

Take `CC(C)Oc1c(C(=O)NCc2ccccc2)oc2ccc(Cl)cc12`: the melting point was in the range of 80 to 82 °C.

Consider `O=C(O)c1ccc(NCCOc2cccc3ccccc23)cc1`, for which the melting point is 193 to 194 °C.

Regarding `NC(=O)Cc1ccc(-c2nc3ccccc3o2)cc1`, the melting point lay in the range of 251 to 255 °C.

Turning to `CN(C)c1nn(-c2cc(F)c(C#N)cc2F)c(=O)n1C(F)F`, the melting point was 188 to 190 °C.

`Cn1cc(Br)cc(N)c1=O`: the melting point fell in the range of 104 to 105 °C.

In turn, `CC1(C)C(=O)Nc2ccccc2C1(O)c1ccccc1` (stereo not given) yielded a melting point of 185 to 187 °C.

In turn, `CCCCc1nn(Cc2ccc(C#N)cc2)c2ccccc2c1=O` showed a melting point of 180 °C.

For `COC(=O)c1cccc(Nc2nccc(-c3cn[nH]c3-c3ccc(F)cc3)n2)c1`, the melting point is greater than 265 °C.

In the case of `Nc1sc(/C=C/CC2CCCCC2)c(CN(C2CCCCC2)C2CCCCC2)c1C(=O)c1ccc(Cl)cc1`, the melting point lay within 147 to 150 °C.

`CC(C)c1cc(Cl)cc2c1OC(C(F)(F)F)C(C(=O)O)=C2` (stereo not given) yielded a melting point of 185 to 189 °C.

Regarding `Cc1c(C(=O)O)cnn1-c1cc(C(F)(F)F)ccc1Cl`, the melting point was 124 to 125 °C.

`CCc1nc2ncnn2c(N)c1CCCCC(F)=C(F)F`: the melting point was 199 °C.

Compound `O=C(O)CC(c1ccccc1)N1CC(NC(=O)C(=NO)c2ccccc2)C1=O` (stereo not given) gave a melting point of 157 to 158 °C.

Take `O=C1C(=Cn2ccnc2)C(c2ccccc2)c2ccccc21` (stereo not given): the melting point fell in the range of 204 to 206 °C.

In the case of `O=C(O)C1CCN(c2nnc(NCc3ccc4c(c3)OCO4)c3cnccc23)CC1`, the melting point is 205 to 206 °C.

In the case of `CCCCn1c(C)cc(=O)c(C(=O)Nc2ccccc2)c1-c1ccccc1`, the melting point lay in the range of 190 to 193 °C.

As for `CCOC(=O)c1cccc(C)c1S(=O)(=O)NC(=O)Nc1nc(OCC(F)(F)F)nc(N(C)C)n1`, the melting point fell in the range of 134 to 142 °C.

In turn, `COCCNC(=O)c1ccc(-c2ccc3nnn(Cc4ccc5ncccc5c4)c3n2)cc1F` yielded a melting point of 162 to 164 °C.

As for `CCOC(=O)c1cn(-c2ccc([N+](=O)[O-])cc2)cn1`, the melting point lay in the range of 198 to 200 °C.

`N#Cc1ccc([C@@H]2CNC[C@@]23NC(=O)N(c2cc(Cl)cc(Cl)c2)C3=O)cc1` (relative stereo) came in with a melting point of 198 °C.

For the compound `COc1ccc(F)c2c1C(=O)CC2`, the melting point was in the range of 118 to 120 °C.

Consider `O=S(=O)(c1ccccc1)N1CCCC1c1ccccc1` (racemic), for which the melting point stood at 116 °C.

Consider `NC(=O)c1[nH]c2ccc(Cl)cc2c1S(=O)(=O)c1cccc(Cl)c1`, for which the melting point fell in the range of 272 to 273 °C.

In turn, `CCN(CC)c1ccc(C2(c3c(C)n(CCOC)c4ccccc34)OC(=O)c3ccccc32)c(C)c1` (stereo not given) registered a melting point of 140 to 143 °C.

`CCC(=O)Nc1cc(-c2c(-c3cccc(Cl)c3)nc3cccnn23)ccn1` showed a melting point of 192 to 193 °C.

`N#Cc1ccc(C(=C2CCCC2)c2ncc[nH]2)cc1` had a melting point of 108 to 110 °C.

Compound `O=C(CC1Sc2ccccc2NC1=O)NCc1ccccc1` (stereo not given) yielded a melting point of 238 to 240 °C.

As to `CC(=O)N1CCN(c2ccc(F)cc2O)CC1`, the melting point lay within 183 to 185 °C.

`CC[C@H](C)[C@H](NC(=O)OCc1ccccc1)C(=O)N[C@@H](C=O)Cc1c[nH]c2ccccc12` yielded a melting point of 163 to 164 °C.

The compound `CCOc1ccc(OCc2ccccc2OCc2nc(-c3ccccc3)oc2C)cc1CCC(=O)O` displayed a melting point of 146 to 147 °C.

In the case of `O=S1CCN(c2nc(Cl)nc3c(Cl)ncnc23)CC1`, the melting point was 195 to 198 °C.

Regarding `Cc1c(N2CC(COC(=O)C(C)C)C(COC(=O)C(C)C)C2)c(F)cc2c(=O)c(C(=O)O)cn(C3CC3)c12` (stereo not given), the melting point lay in the range of 141 to 143 °C.

`O=C(C1CC1)N1CCCc2oc(-c3ccccc3)cc2C1` showed a melting point of 108 to 110 °C.

With `COc1ccc(C)cc1-c1ccc(S(=O)(=O)N2c3ccccc3CC2C(=O)NCc2ccc(C(=O)O)cc2)cc1` (stereo not given), the melting point lay in the range of 153 to 165 °C.

As for `Cc1ccccc1-c1ccc(C=O)cn1`, the melting point was in the range of 82 to 84 °C.

`O=C(CCC(=O)N1CCC(c2ccc(Cl)cc2)CC1)c1ccc2c(c1)CCNCC2` yielded a melting point of 148 to 149 °C.

`CC(Br)c1ccc(-c2nc3ccccc3o2)cc1` (stereo not given) showed a melting point of 128 to 131 °C.

`COc1ccc(/C=C(\C)[N+](=O)[O-])cc1OCc1ccccc1` registered a melting point of 102 to 104 °C.

Regarding `Cc1cccc(C)c1N(CCCC(=O)N[C@@H](C)C(=O)O)C(=O)c1ccc(Cl)cc1`, the melting point lay in the range of 159 to 161 °C.

Compound `COc1cc2c(cc1OC)C(=O)C(C(=O)C(F)(F)F)CS2` (stereo not given) had a melting point of 148 to 151 °C.

Take `CCCc1nc2c(C)cc(C)nc2n1Cc1ccc(-c2ccccc2-c2c(O)c(=O)c2=O)cc1`: the melting point came out at 182 °C.

In turn, `Cc1ccc(Cl)c(N2C(=O)C(=NO)c3ccccc32)c1Cl` had a melting point of 190 to 191 °C.

Compound `CC(C)(C)c1ccc2c(c1)Cc1cc(C(C)(C)C)ccc1-2` yielded a melting point of 120 to 121 °C.

Regarding `CC(=O)CCC(=O)N(C)c1nnc(-c2cccnc2)s1`, the melting point is 146 to 147 °C.

In turn, `O=C(Nc1c(C(O)(C(F)(F)F)C(F)(F)F)ccc2ccccc12)c1ccco1` had a melting point of 228 to 229 °C.

For the compound `CCOc1cc(C)ccc1C1CCN(CCCCNC(=O)c2ccc(-c3ccc(C(F)(F)F)cc3)cc2)CC1`, the melting point came to 191 °C.

In the case of `CCCCCCC1(Br)CC(=CNc2ccccc2)OC1=O` (stereo not given), the melting point lay within 147 to 148 °C.

`Oc1cc(O)c2c(c1)Oc1ccc(Br)cc1CC2` yielded a melting point of 174 to 176 °C.

The compound `Cc1ccc(Cn2c(-c3ccccc3)nc(Cl)c2CO)cc1` yielded a melting point of 173 to 175 °C.

The compound `CCC(Oc1ccc(Cl)c(C)c1)C(=O)NCc1ccccc1` (stereo not given) yielded a melting point of 95 to 97 °C.

Compound `Cc1cc(N(C)Cc2ccc(-c3ccc(Cl)cc3)nc2)ccc1OCC(=O)O` had a melting point of 174 to 176 °C.

On to `CN(C)c1nc2sc3c(NCCN4CCOCC4)ncnc3c2c2c1CCC(C)(C)C2`, for which the melting point was in the range of 173 to 175 °C.

On to `Nc1c[nH]c(=S)n1C1CCc2ccccc2C1` (stereo not given), for which the melting point lay within 169 to 171 °C.

Take `CCCCCCCCCCCCSCC(CO)NC(=O)CCCCCCCCCC` (stereo not given): the melting point was 64 to 67 °C.

For `COCCOc1ccc(N)cc1S(=O)(=O)O`, the melting point is greater than 250 °C.

As to `COc1ccc(C2CCN(c3c(C)c(C)c4c(c3C)[C@@H](c3ccc(C)cc3)C(C)(C)O4)CC2)cc1`, the melting point was in the range of 183 to 185 °C.

For `Cc1cnc2c(Br)c(NC3=NCCN3)ccc2n1`, the melting point is 260 °C.

Compound `CCc1cc(C(=O)CBr)ccc1O` displayed a melting point greater than 260 °C.

Consider `COc1cc(C2=NNC(=O)CC2)ccc1O`, for which the melting point fell in the range of 209 to 210 °C.

`COc1cc(COc2ncccc2CO)ccc1OCc1nc(-c2ccccc2)oc1C` had a melting point of 143 to 144 °C.

Compound `O=S(=O)(CCCl)CCCS(=O)(=O)CCCl` returned a melting point of 142 to 146 °C.

`CC(=O)Oc1cc(CCc2ccccc2)cc(OC(C)=O)c1` registered a melting point of 48 to 48.5 °C.

`Cc1ccccc1Sc1cncc2sc(C(N)=O)cc12`: the melting point lay in the range of 170 to 172 °C.

`O=c1c2cccnc2c(-c2cccc(Cl)c2)nn1Cc1ccsc1` came in with a melting point of 165 to 166 °C.

Consider `COc1nc2ccccc2cc1N(C)C(=O)N1CCN(c2cc(C)cc(C)c2)CC1`, for which the melting point was in the range of 142 to 143 °C.

On to `CCN(CC)c1nc(-c2ccncc2)nc2sc(C#N)c(C)c12`, for which the melting point lay in the range of 169 to 171 °C.

The compound `CCOC(=O)c1cnc2ccc(C)cc2c1O` showed a melting point greater than 260 °C.

As usually defined, the melting point is the temperature of the solid-liquid transition.

Values taken from a melting point compilation (Tetko et al.; mined from patent text by program, amines drawn as free bases though some values may be those of a salt).
